This note sets out measurements from US12497402B2, “IRAK4 degraders and uses thereof” (priority 2021, dated 2025).

The nature of the series: in vivo. Conditions: dog, in vivo; for Potential accumulation after multiple doses / Sex differences in mean Cmax and AUC0-24 values / Tmax / half-life: both, beagle; for Tmax / half-life: po; for half-life: t1/2. From the text: The vehicle was HPBCD (Kleptose Oral Grade HPB) prepared in reverse osmosis water.
Assessment of toxicity was based on mortality, clinical observations, body weights, food consumption, ophthalmic observations, electrocardiographic (ECG) measurements, and clinical and anatomic pathology. Blood samples were collected for toxicokinetic evaluation.

For orientation: Tmax means the time at which the peak concentration occurs. For orientation: half-life means the time in which the quantity being followed falls by half. The low end stands for rapid decline, the high end for slow decline.

Regarding `Cn1c(=O)n([C@@H]2CCC(=O)NC2=O)c2cccc(C#CCOC3CCN(C[C@H]4CC[C@H](n5cc(NC(=O)c6cnn7ccc(N8C[C@H]9C[C@@H]8CO9)nc67)c(C(F)F)n5)CC4)CC3)c21` [Compound C, 5-((1R,4R)-2-oxa-5-azabicyclo[2.2.1]heptan-5-yl)-N-(3-(difluoromethyl)-1-((1r,4R)-4-((4-((3-(1-((R)-2,6-dioxopiperidin-3-yl)-3-methyl-2-oxo-2,3-dihydro-1H-benzo[d]imidazol-4-yl)prop-2-yn-1-yl)oxy)piperidin-1-yl)methyl)cyclohexyl)-1H-pyrazol-4-yl)pyrazolo[1,5-a]pyrimidine-3-carboxamide], the “Potential accumulation after multiple doses” value was ≤ 1.86 fold; the “Sex differences in mean Cmax and AUC0-24 values” is “less than 2 fold”; the “Dose proportionality of increases in mean Cmax and AUC0-24” value is reported as “less than dose proportional”. Besides, the time to peak (Tmax) (5 mg/kg, Tmax) turned out to be 4 h. The half-life (5 mg/kg) is 7.65 h. Further, the time of peak concentration (Tmax) (30 mg/kg, Tmax) was found to be 4 h. Moreover, the time of peak concentration (Tmax) (60 mg/kg, Tmax) came out at 4 h. The Tmax (60 mg/kg, median Tmax) stood at 4 h. Moreover, under “100 mg/kg, Tmax”, the Tmax was determined as 6 h. In addition, the time to peak (Tmax) (200 mg/kg, Tmax) is 4 h. The Tmax (median Tmax) came out at 6 h.
In the case of `Cn1c(=O)n([C@H]2CCC(=O)NC2=O)c2cccc(C#CCOC3CCN(C[C@H]4CC[C@H](n5cc(NC(=O)c6cnn7ccc(N8C[C@H]9C[C@@H]8CO9)nc67)c(C(F)F)n5)CC4)CC3)c21` [Compound B, 5-((1R,4R)-2-oxa-5-azabicyclo[2.2.1]heptan-5-yl)-N-(3-(difluoromethyl)-1-((1r,4R)-4-((4-((3-(1-((S)-2,6-dioxopiperidin-3-yl)-3-methyl-2-oxo-2,3-dihydro-1H-benzo[d]imidazol-4-yl)prop-2-yn-1-yl)oxy)piperidin-1-yl)methyl)cyclohexyl)-1H-pyrazol-4-yl)pyrazolo[1,5-a]pyrimidine-3-carboxamide], the “Potential accumulation after multiple doses” value is ≤ 1.98 fold; the “Sex differences in mean Cmax and AUC0-24 values” was “less than 2 fold”; the “Dose proportionality of increases in mean Cmax and AUC0-24” value was “less than dose proportional”. Also, the time of peak concentration (Tmax) (5 mg/kg, Tmax) is 4 h. The same compound gave a half-life (5 mg/kg) of 7.6 h. The time of peak concentration (Tmax) (30 mg/kg, Tmax) came out at 4 h. Also, the Tmax (60 mg/kg, Tmax) is 4 h. For the same compound, under “60 mg/kg/day, median Tmax”, the Tmax was determined as 4 h. Moreover, the time to peak (Tmax) (100 mg/kg, Tmax) was 6 h. Besides, for the setting “median Tmax”, the Tmax was 6 to 9 h.
